Data: patent publication US11351130B2, “Prevention and reversal of inflammation induced DNA damage” (Indiana University Research and Technology Corporation, priority 2017, dated 2022)

Experiments:
[1] = tested on: APE1; test: APE1 expression (immunoblotting) after siRNA; format: cell-based, rat; details: 100 nM siRNA
Protocol: Small interfering RNAs to APE1 (APE1siRNA) and scrambled siRNA (SCsiRNA) controls were used to decrease APE1 protein expression in sensory neuronal cell cultures and as controls, respectively, as described previously (Vasko et al., 2005, Jiang et al., 2008a). On day 3 in culture, the growth media was replaced with 0.5 ml of Opti-MEM 1 media containing 100 nM of APE1siRNA (5′-[…]-3′ (SEQ ID NO:1)) or SCsiRNA (5′-[…]-3′(SEQ ID NO:2)); (Vasko et al., 2005)) and 10 μl of the transfecting reagent, Neuroporter. On the next day, 0.5 ml of the growth media without antibiotics was added to each well, and after an additional 24 hours the media containing siRNA was replaced with normal growth media.
Tissues or cells were harvested, lysed in RIPA buffer (Santa Cruz Biotechnology; Santa Cruz, Calif., USA), sonicated, and cleared of cellular debris by centrifuging at 4000 RPM for 2 minutes. Protein was quantified using Lowry assay, and electrophoresed in a 12% SDS-polyacrylamide gel. […] Antibody binding was detected following appropriate secondary antibody methods using chemiluminescence. The density of the bands was measured using Quantity One software from Bio-Rad (Hercules, Calif.) and data expressed as density normalized to vinculin.

[2] = tested on: NFκB; test: NF-κB luciferase reporter transactivation assay; format: cell-based; details: read-out: inhibition of NFκB binding to the reporter construct, IC50
Protocol: Reporter assays were performed as previously described (Georgiadis et al., 2008; Kelley et al., 2011; Cardoso et al., 2012b; Luo et al., 2012). Cells were transfected with NF-κB-Luciferase construct containing an NF-κB-response promoter and driving the expression of a luciferase gene and a Renilla luciferase control reporter vector pRL-CMV. After a 24-hour transfection period, cells were lysed, and Firefly and Renilla luciferase activities were assayed using Renilla luciferase activity for normalization. All of the transfection experiments were performed in triplicate and repeated at least three times in independent experiments. Data are expressed as mean±standard error from a representative experiment, and Student's t tests were performed.

[3] = tested on: sensory neuronal cultures; test: Neuronal cell viability (trypan blue exclusion); format: cell-based; details: for effect on cisplatin-induced cell death: 20 μM for 48 hours prior to and throughout the cisplatin treatment (24 hours)
Protocol: (§1) Primary cultures of sensory neurons were harvested and maintained as previously described (Vasko et al., 2005). Briefly, adult male Sprague-Dawley rats (150-175 g; Harlan, Indianapolis, Ind.) were euthanized by CO2 asphyxiation and dorsal root ganglia (DRG) dissected from all spinal levels, transferred to into a collagenase solution (1 mg/ml), incubated for 1 hour at 37° C., then dissociated by mechanical agitation. Approximately 30,000 cells or 60,000 cells were plated into each well of 12-well or 6-well culture plates, respectively. All culture dishes were precoated with poly-D-lysine and laminin. Cells were maintained in F-12 media supplemented with 10% horse serum, 2 mM glutamine, 100 μg/ml Normocin™, 50 μg/ml penicillin, 50 μg/ml streptomycin, 50 μM 5-fluoro-2′-deoxyuridine (Invitrogen), 150 μM uridine, and 30 ng/ml of NGF in 3% CO2 at 37° C. Growth medium was changed every other day. Experiments were performed after cells were maintained in culture for 12-14 days.
Sensory neuronal culture trypan blue exclusion analysis was performed as previously described (Vasko et al., 2011). Cells were detached by adding a 0.05% trypsin-EDTA solution and media to each well. An equal volume of 0.4% (w/v) trypan blue in PBS was added to the cell suspension and the numbers of living cells (i.e., those that exclude the dye) were counted under a phase contrast microscope using a hemacytometer. Percent survival was calculated as the percent of live cells divided by the total cell number (including dead and live cells).

[4] = biological target: T1, APE1 (Homo sapiens, UniProt P27695); test: AP endonuclease DNA repair assay; format: biochemical; details: APX2009 in the nanomolar range
T1 sequence (P27695 whole entry, species assumed): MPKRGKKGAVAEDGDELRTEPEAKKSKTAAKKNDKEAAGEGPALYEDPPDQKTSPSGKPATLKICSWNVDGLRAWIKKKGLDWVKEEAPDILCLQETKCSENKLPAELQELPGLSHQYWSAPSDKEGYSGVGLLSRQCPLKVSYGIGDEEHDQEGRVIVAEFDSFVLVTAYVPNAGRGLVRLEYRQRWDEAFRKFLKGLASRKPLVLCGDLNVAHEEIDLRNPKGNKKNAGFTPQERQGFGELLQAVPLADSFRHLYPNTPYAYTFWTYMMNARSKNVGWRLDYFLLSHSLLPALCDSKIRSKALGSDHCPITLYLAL
Protocol: Inhibition or enhancement of APE1 DNA repair endonuclease activity was performed as previously described (Bapat et al., 2010). The APE1 repair activity assay was performed in a plate assay using two annealed oligonucleotides (5′-6-FAM-GCCCCC*[…]-3′ (SEQ ID NO:3) and 3′-Q-[…]-5′ (SEQ ID NO:4)) containing a quencher on one strand and a fluorescent 6-FAM label with tetrahydrofuran as an AP site mimic. Oligo cleavage at the AP mimic site results in 6-FAM release and detection. The fluorescence was read at five, one-minute intervals using a Tecan Ultra plate reader (Chemical Genomics Core, Indiana University School of Medicine). The rate of the reaction was used to determine the change in APE1 repair activity as compared to the vehicle control.

[5] = tested on: sensory neurons in culture; format: cell-based, rat; details: for effect on cisplatin-induced reduction in capsaicin-evoked CGRP release: 72 hour treatment, 10 μM cisplatin
Protocol: as §1
For release experiments, cell cultures were washed with HEPES buffer consisting of (in mM) 25 HEPES, 135 NaCl, 3.5 KCl, 2.5 CaCl2, 1 MgCl2, 3.3 D-glucose, and 0.1% bovine serum albumin, pH 7.4 and maintained at 37° C. They then were incubated for successive 10-minute intervals with 0.4 ml of HEPES buffer alone (basal release), with buffer containing 30 nM capsaicin, then with buffer alone (to assess return to basal release). After each incubation, the buffer was removed and the amount of immunoreactive calcitonin-gene related peptide (CGRP) in each sample was measured using radioimmunoassay (RIA) as previously described (Chen et al., 1996). At the end of the release protocol, CGRP is extracted from the cultures and total content measured using RIA.

[6] = tested on: sensory neuronal cultures; test: phospho-H2AX immunoblotting in sensory neuronal cultures (Example 3); format: cell-based, rat; details: for effect on cisplatin-induced pH2AX levels (DNA damage): 20 μM for 48 hours prior to and throughout exposure to 10 μM cisplatin
Protocol: as §1
Immunoblotting was performed as previously described (Kelley et al., 2014). Briefly, cells were lysed in RIPA buffer (Santa Cruz Biotechnology; Santa Cruz, Calif., USA) and protein was quantified using the Lowey assay. Proteins were separated by electrophoresis on a 4-12% SDS-polyacrylamide gel. The gel was transferred to a PVDF membrane and incubated overnight at 4° C. in Tris-buffered saline containing 0.1% Tween-20 (TBST) and 5% nonfat dry milk while gently agitating. Mouse monoclonal antihuman Ape1 antibodies (1:500), mouse monoclonal anti-phospho H2AX antibodies (1:1000), or (3-Actin monoclonal antibody (1:1000) were added to the blocking solution and incubated overnight at room temperature while gently agitating. Antibody binding was detected following appropriate secondary antibody methods using chemiluminescence. The density of the bands was measured using QUALITYONE® software from Bio-Rad (Hercules, Calif.) and data expressed as density normalized to actin.

[7] = biological target: T1, APE1; test: redox APE1 electrophoretic mobility shift assay (EMSA); format: biochemical; design: Purified APE1 was reduced with 1.0 mM DTT for 10 minutes; details: read-out: redox inhibition IC50
Protocol: EMSAs were performed as described (Luo et al., 2012). Purified APE1 was reduced with 1.0 mM DTT for 10 minutes and diluted to a final concentration of 0.006 mM with 0.02 mM DTT in PBS. Reduced APE1 was added to EMSA reaction buffer (10 mM Tris (pH 7.5), 50 mM NaCl, 1 mM MgCl2, 1 mM EDTA, 5% [vol/vol] glycerol) with […] 0.007 mM protein mixture (1:1) of purified truncated c-Jun and c-Fos proteins containing DNA-binding domain and leucine zipper and incubated for 30 minutes at room temperature. The EMSA assay was performed as previously described (Luo et al., 2008; Nyland et al., 2010; Kelley et al., 2011; Luo et al., 2012).

[8] = Pharmacokinetics (PK); details: in vivo
Protocol: (§2) PK studies were performed in the IU Simon Cancer Center Clinical Pharmacology Analytical Core (CPAC), as previously described for E3330 (Fishel et al., 2011) and standards for the compounds used. P450 metabolism studies using human microsomes were also performed in CPAC directed by Dr. David Jones.

[9] = P450 metabolism analysis using human microsomes; format: in vitro ADME; details: human
Protocol: as §2

[10] = tested on: human microsomes; test: P450 metabolism analysis using human microsomes; format: in vitro ADME; details: vs E3330
Protocol: as §2

[11] = tested on: Pa03C patient-derived PDAC cells; test: Tumor and CAF 3D co-cultures, tumor cells; format: cell-based, human; details: tumor alone or co-cultured with CAFs, 12 days in culture, vs vehicle control
Text: (§3) Patient-derived tumor cells and CAF19 cells were a kind gift from Dr. Anirban Maitra (The Johns Hopkins University M.D. Anderson Cancer Center) (Jones et al., 2008). All cell lines were authenticated via STR analysis (IDEXX BioResearch) and checked routinely for mycoplasma contamination. Ultra low attachment 96-well plates (Corning Inc., Life Sciences) were used to generate 3-dimensional tumor spheroids in the presence and absence of CAFs, as described previously (Sempere et al., 2011; Arpin, 2015). TdTomato-labeled PDAC cells and EGFP-labeled CAFs are resuspended in colorless DMEM media containing 3% Reduced Growth Factor Matrigel (BD Biosciences) and 5% FBS at a cell ratio of 1:4 (tumor:CAF) and fed on days 4 and 8 following plating. Both cell populations are quantitated for intensity and area via Thermo ArrayScan at day 12 of co-culture.

[12] = tested on: CAF19 cells; test: Tumor and CAF 3D co-cultures, CAFs; format: cell-based, human; details: co-culture with tumor cells, 12 days in culture
Text: as §3

APE1siRNA: Small interfering RNA to APE1, 5′-GUCUGGUAAGACUGGAGUACC-3′ (SEQ ID NO:1) (chemistry not given here)
APE1 expression relative to wildtype expression [1]: ~20%

COC1=C(/C=C(\C)C(=O)N(C)C)C(=O)c2ccccc2C1=O [APX2032]
IC50 [2]: 7 µM | effect on cisplatin-induced cell death [3]: did not attenuate the cisplatin-induced cell death | cell viability, drug alone ([3]; 20 μM or 40 μM, 24 hours): significant reduction in cell viability | cell death, drug alone ([3]; 20 or 40 μM, 72 hours (data not shown)): significant increase in cell death | APE1 repair (endonuclease) activity [4]: no effect | effect on cisplatin-induced reduction in capsaicin-evoked CGRP release ([5]; 10 μM): did block the effect of cisplatin | CGRP release, drug alone ([5]; 10 μM, 72 hours): did not affect CGRP release | capsaicin-stimulated release of CGRP, drug alone ([5]; 20 μM, 72 hours): significant increase in capsaicin-stimulated release | effect on cisplatin-induced pH2AX levels (DNA damage) [6]: neither APX2007 nor APX2032 (20 μM) altered the ability of cisplatin to produce DNA damage | IC50 [7]: 1 µM

CCC/C(=C\C1=C(OC)C(=O)c2ccccc2C1=O)C(=O)N(CC)CC [APX2009, (2E)-2-[(3-methoxy-1,4-dioxo-1,4-dihydronaphthalen-2-yl)methylidene]-N,N-diethylpentanamide]
IC50 [2]: 7 µM | half-life [8]: 25.8 h | half-life increase compared to E3330 [8]: ~7 fold | half-life [9]: 2.88 h | half-life increase, P450 metabolism analysis [10]: 8.7 fold | effect on cisplatin-induced cell death [3]: blocked | protection from oxaliplatin-induced cell killing ([3]; 10 or 20 μM, 72-hour treatment, oxaliplatin 24 hours): protected the sensory neuronal cultures from cell killing | cell death / cell viability, drug alone ([3]; 24 hours, E3330 10, 20 or 40 μM, APX2009 various concentrations): did not result in a significant reduction in cell viability | APE1 repair (endonuclease) activity [4]: stimulation of APE1 repair activity | effect on cisplatin-induced reduction in capsaicin-evoked CGRP release ([5]; 10 μM): did not prevent the cisplatin-induced reduction in release | effect on oxaliplatin-induced decrease in CGRP release ([5]; 48 hours prior to and throughout exposure to oxaliplatin for 24 hours): prevented the oxaliplatin-induced decrease in CGRP release | basal (resting) release or release of CGRP stimulated by 30 nM capsaicin, drug alone ([5]; 72 hours, E3330 20 μM, APX2009 10 or 20 μM, compared to untreated cells): no significant change | effect on cisplatin-induced pH2AX levels (DNA damage) [6]: significantly reduced the levels of pH2AX | phosphorylation of H2AX after oxaliplatin ([6]; 20 μM, 24 and 48 hr treatments of 30 μM oxaliplatin): significantly reduced the phosphorylation of H2AX | tumor intensity and area in 3D spheroids [11]: statistical differences were observed for the tumor alone or tumor co-cultured with CAFs | CAF intensity and area in 3D spheroids [12]: not significantly affected | IC50 [7]: 1 µM
